This note sets out measurements from paper PMC11435438, “Cyclin-Dependent Kinase 8 Represents a Positive Regulator of Cytomegalovirus Replication and a Novel Host Target for Antiviral Strategies” (Pharmaceutics, 2024).

In general, EC50 refers to the concentration at which the effect is half-maximal.

Like-named read-outs stand apart in the source and are kept apart here. Where only a bound is given, the exact number is not on record here.

Experiment [1] relates to HCMV AD169-GFP. Kind of experiment: microbe, parasite or virus in culture. The format is cell-based, human cytomegalovirus. Here is the method:
(i.e., 1 × TCID25/7d). Immediately after virus adsorption, the cells were treated with antiviral compounds or solvent control (DMSO). Infections were performed in biological quadruplicates, or as indicated for individual experiments. The cells were fixed by the addition of 150 µL 10% formalin/well 7 d p.i. (Merlin-GFP 14 d p.i.), and washed with PBS. For GFP or YFP quantitation, the Victor X4 microplate reader (PerkinElmer, Waltham, MA, USA) was primarily used, or as a very sensitive alternative, the ImageXpress® Pico device (Molecular Devices LLC, San Jose, CA, USA). Mean EC50 values of antiviral efficacy were calculated on the basis of three experimental replicates or as indicated (measurement of fluorescence values in quadruplicate), and percentage values were provided relative to the solvent control (DMSO).

Experiment [2] concerns RCMV-mCherry. Nature of the experiment: RCMV-mCherry replication assay in REFs. Type of experiment: cell-based, rat cytomegalovirus. Conditions: in Rattus norvegicus, read-out: EC50 RCMV. An excerpt: Similarly, 2 × 10^4 primary embryonic guinea pig fibroblasts GPEFs/96-well, or 1.35 × 10^4 HFFs/96-well, or 2 × 10^4 rat REFs/96-well, or 2 × 10^4 murine MEFs/96-well, were cultivated for infection with GPCMV-GFP, RhCMV-GFP, ChCMV, RCMV-mCherry, or MCMV-GFP, respectively (all approx. MOI of 0.01 referring to 1 × TCID25), and were used for the assessment of antiviral drug activity. To this end, cells were fixed 7 d p.i. (RCMV-mCherry 4 d p.i.), before GFP or mCherry expression was quantified using the Victor X4 microplate reader, or other viral replication markers were measured as explained for the individual experiments. ChCMV replication in HFFs was monitored and quantified by the use of Anti-Cytomegalovirus Antibody Alexa Fluor™ 488. For immunofluorescence staining with Anti-Cytomegalovirus Antibody Alexa Fluor™ 488 (Sigma Aldrich, St. Louis, MO, USA; solution in PBS with 1% FCS), the infected cells were fixed at 7 d p.i. with 10% formalin and permeabilized with 0.2% Triton-x-100. Cell nuclei were counterstained using Höchst dye to be measured using the ImageXpress Pico (Molecular Devices, LLC, San Jose, CA, USA). Mean EC50 values of antiviral efficacy were calculated on the basis of three experimental replicates or as indicated (measurement of fluorescence values in quadruplicate), and percentage values were provided relative to the solvent control (DMSO).

The test system of experiment [3] is HSV-1 166v VP22-GFP. Nature of the experiment: HSV-1 replication assay in HFFs. The format is cell-based, herpes simplex virus type 1. Particulars: Human alphaherpesvirus 1, read-out: EC50 HSV-1. Here is the method: (§1) Primary human foreskin fibroblasts (HFFs; obtained from clinical samples at Children’s Hospital in Erlangen, Germany), guinea pig embryonic fibroblasts (GPEFs; generously provided by Mark R. Schleiss from the University of Minnesota in Minneapolis, MN, USA), and rat embryonic fibroblasts were cultivated in Eagle’s Minimal Essential Medium (MEM) supplemented with 1 × GlutaMAX™ (both from Thermo Fisher Scientific, Waltham, MA, USA), 10 µg/mL gentamicin, and 10% fetal bovine serum (FBS; Capricorn, Ebsdorfergrund, Germany). Human glioblastoma–astrocytoma cell line (U373) and mouse embryonic fibroblasts (MEFs), both obtained from ATCC (Manassas, VA, USA), and Vero cell sublineage 76 [26], were cultivated in Dulbecco’s modified Eagle’s medium (DMEM) supplemented with 1 × GlutaMAX™, 10 µg/mL gentamicin, and 10% fetal bovine serum. All cultured cells were maintained under the conditions of 37 °C temperature, 5% CO2, and 80% humidity. The regular monitoring for the absence of mycoplasma contamination was conducted using Lonza™ Mycoalert™ (Thermo Fisher Scientific, Waltham, MA, USA). Cultured cell-based viral replication assays were performed by the use of the HCMV strain AD169 (variant U.K.), the recombinant HCMVs AD169-GFP expressing green fluorescent protein [27], TB40 IE2-YFP and TB40-FLuc expressing an IE2-YFP fusion protein or firefly luciferase (FLuc), and Merlin-GFP [31]. […]
(§2) A variety of antiherpesviral and non-herpesviral drug activities were assessed by the cell culture-based viral replication systems, as described elsewhere. […] After incubation at 37 °C for 3 days, iSLK.219 cells were fixed with 10% formalin, washed with PBS, and used for a quantitation of RFP reporter signal by PicoMD counting (ImageXpress® Pico device, Molecular Devices LLC, San Jose, CA, USA). […]

The test system of experiment [4] is HHV-6A-GFP. Nature of the experiment: HHV-6A replication assay in J-Jhan cells. Conditions: Homo sapiens, read-out: EC50 HHV-6A. Type of experiment: cell-based, human herpesvirus type 6A. Here is the method:
as §1, §2

Setting [5] is: Human betaherpesvirus 5, AD169, HFF, read-out: EC50 AD169-GFP.
Where [6] appears, read: Human betaherpesvirus 5, AD169, read-out: EC50 HCMV.

On to `CN(C)C(=O)Cn1cc(-c2ccc(-c3cncc4ccccc34)cc2)cn1` [BI-1347], for which the EC50 in experiment [1] (setting [5]) is 0.93 ± 0.67 nM; in experiment [1] (setting [6]) it was 0.93 ± 0.67 nM; in experiment [2], 1.08 ± 1.49 nM; in experiment [3] it was more than 50000 nM; in experiment [4] it was more than 50000 nM.

As for `Cn1ncc2cc(-c3cnc(N)c(Cl)c3N3CCC4(CCNC4=O)CC3)ccc21` [CCT-151921], the EC50 in experiment [1] (setting [5]) was 3.9 ± 2 nM; in experiment [1] (setting [6]), 3.9 ± 2 nM; in experiment [2] it was 11.2 ± 22.7 nM; in experiment [3], more than 50000 nM; in experiment [4] it was 39000 ± 21000 nM.

Consider `Cc1n[nH]c2ncc(C(=O)N3CCC[C@H]3c3ccc(Cl)cc3)cc12` [MSC-2530818], for which the EC50 in experiment [1] (setting [5]) was 1.21 ± 0.77 nM; in experiment [1] (setting [6]) it was 1.21 ± 0.77 nM; in experiment [2] it was 4.87 ± 4.67 nM; in experiment [3], 42300 ± 4900 nM; in experiment [4], more than 50000 nM.
